The record followed here is ChEMBL document CHEMBL5465560, “Selectivity Literature for EUbOPEN Chemogenomic Library” (2024).

The target in test [1] is Dual specificity testis-specific protein kinase 1 (Homo sapiens) (UniProt Q15569). Description: Selectivity interaction (LanthaScreen Eu Kinase Binding Assay) EUB0001632a TESK1. The following applies: at 10 µM. For orientation: TR-FRET usually uses a lanthanide donor and a delayed reading to cut background.
The target of test [2] is Mitogen-activated protein kinase 11 (Homo sapiens) (UniProt Q15759). As to the kind of experiment: Selectivity interaction (KinomeScan (DiscoverX)) EUB0000607a MAPK11. The following applies: at 10 µM.
For test [3], the target named is Mitogen-activated protein kinase 7 (Homo sapiens) (UniProt Q13164). The following applies: at 10 µM.
In test [4] the target is Death-associated protein kinase 1 (Homo sapiens, UniProt P53355). Description: Selectivity interaction (Kinase panel (DSF assay)) EUB0001558a DAPK1.
Test [5] deals with T1, Tyrosine-protein kinase Mer (Homo sapiens) (UniProt Q12866).
T1 sequence (whole entry): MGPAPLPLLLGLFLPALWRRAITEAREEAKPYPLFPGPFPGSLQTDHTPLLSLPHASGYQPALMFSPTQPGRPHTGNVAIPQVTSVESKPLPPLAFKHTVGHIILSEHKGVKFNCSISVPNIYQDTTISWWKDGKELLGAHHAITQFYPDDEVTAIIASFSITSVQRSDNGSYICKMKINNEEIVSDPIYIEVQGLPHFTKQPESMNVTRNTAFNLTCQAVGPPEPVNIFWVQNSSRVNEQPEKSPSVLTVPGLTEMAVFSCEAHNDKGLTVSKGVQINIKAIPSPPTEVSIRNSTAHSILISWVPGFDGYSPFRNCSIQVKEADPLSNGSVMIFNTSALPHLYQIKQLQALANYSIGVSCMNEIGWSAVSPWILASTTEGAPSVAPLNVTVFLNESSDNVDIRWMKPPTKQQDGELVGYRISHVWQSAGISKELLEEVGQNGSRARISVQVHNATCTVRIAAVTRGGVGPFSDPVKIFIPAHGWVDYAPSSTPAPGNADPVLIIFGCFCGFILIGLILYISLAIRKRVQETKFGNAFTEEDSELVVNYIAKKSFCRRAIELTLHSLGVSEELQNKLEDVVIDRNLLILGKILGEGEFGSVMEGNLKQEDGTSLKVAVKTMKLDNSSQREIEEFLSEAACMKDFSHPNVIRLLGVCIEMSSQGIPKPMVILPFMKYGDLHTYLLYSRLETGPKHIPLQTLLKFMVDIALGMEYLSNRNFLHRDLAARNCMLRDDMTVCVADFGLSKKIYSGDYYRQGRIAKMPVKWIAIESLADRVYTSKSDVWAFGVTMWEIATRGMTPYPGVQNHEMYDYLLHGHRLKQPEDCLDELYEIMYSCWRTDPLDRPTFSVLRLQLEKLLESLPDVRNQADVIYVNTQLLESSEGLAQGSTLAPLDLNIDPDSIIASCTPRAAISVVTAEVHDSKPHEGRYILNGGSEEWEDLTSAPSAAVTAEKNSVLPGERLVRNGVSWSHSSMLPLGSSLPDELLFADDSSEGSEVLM
As to the kind of experiment: Selectivity interaction (KinomeScan (DiscoverX)) EUB0001079a MERTK. The following applies: at 1 µM.

The target of test [6] is T2, Myosin light chain kinase family member 4 (Homo sapiens) (UniProt Q86YV6).
T2 sequence (whole entry): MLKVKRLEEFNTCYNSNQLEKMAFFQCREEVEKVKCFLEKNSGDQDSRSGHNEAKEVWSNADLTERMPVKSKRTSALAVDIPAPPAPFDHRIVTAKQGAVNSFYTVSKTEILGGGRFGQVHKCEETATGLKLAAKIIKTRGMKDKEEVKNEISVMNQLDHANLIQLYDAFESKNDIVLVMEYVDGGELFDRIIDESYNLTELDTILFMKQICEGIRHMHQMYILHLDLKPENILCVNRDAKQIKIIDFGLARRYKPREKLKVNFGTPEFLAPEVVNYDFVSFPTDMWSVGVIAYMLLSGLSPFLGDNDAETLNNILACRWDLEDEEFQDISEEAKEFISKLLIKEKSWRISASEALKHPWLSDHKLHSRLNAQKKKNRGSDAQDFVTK
Description: Selectivity interaction (KinomeScan (DiscoverX)) EUB0001079a MYLK4. The following applies: at 1 µM.

Test [7] deals with Serine/threonine-protein kinase Nek4 (Homo sapiens) (UniProt P51957). Description: Selectivity interaction (KinomeScan (DiscoverX)) EUB0001619a NEK4. To be noted: at 1 µM.
Test [8] has as its target Serine/threonine-protein kinase PAK 6 (Homo sapiens) (UniProt Q9NQU5). As to the kind of experiment: Selectivity interaction (KinomeScan (DiscoverX)) EUB0001619a PAK6. To be noted: at 1 µM.
Test [9] addresses T3, Dual specificity mitogen-activated protein kinase kinase 3 (Homo sapiens) (UniProt P46734).
T3 sequence (whole entry): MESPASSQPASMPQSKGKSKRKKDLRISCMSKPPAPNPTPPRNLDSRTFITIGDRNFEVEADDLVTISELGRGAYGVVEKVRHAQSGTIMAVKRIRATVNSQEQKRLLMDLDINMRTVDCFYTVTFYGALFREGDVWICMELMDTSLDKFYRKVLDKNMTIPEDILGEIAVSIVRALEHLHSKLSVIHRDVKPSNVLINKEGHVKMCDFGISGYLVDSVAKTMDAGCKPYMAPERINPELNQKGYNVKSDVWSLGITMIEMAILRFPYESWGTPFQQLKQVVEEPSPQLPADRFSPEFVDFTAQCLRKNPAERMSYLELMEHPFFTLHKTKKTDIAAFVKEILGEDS
Description: Selectivity interaction (ActivX KiNativ screen (kinase selectivity in THP-1 cell lysates)) EUB0000639a MAP2K3. To be noted: lysate, at 1 µM. The test is classed as subcellular.

Test [10] deals with Ribosomal protein S6 kinase beta-1 (Homo sapiens, UniProt P23443). As to the kind of experiment: Selectivity interaction (ActivX KiNativ screen (kinase selectivity in THP-1 cell lysates)) EUB0000639a RPS6KB1. The test is classed as subcellular. To be noted: lysate, at 0.01 µM.
In test [11] the target is Calcium/calmodulin-dependent protein kinase type II subunit gamma (Homo sapiens) (UniProt Q13555). As to the kind of experiment: Selectivity interaction (ProQinase) EUB0000171b CAMK2G.

Structures are written as SMILES.

Sequence of Calcium/calmodulin-dependent protein kinase type II subunit gamma (Homo sapiens) (Q13555 whole entry): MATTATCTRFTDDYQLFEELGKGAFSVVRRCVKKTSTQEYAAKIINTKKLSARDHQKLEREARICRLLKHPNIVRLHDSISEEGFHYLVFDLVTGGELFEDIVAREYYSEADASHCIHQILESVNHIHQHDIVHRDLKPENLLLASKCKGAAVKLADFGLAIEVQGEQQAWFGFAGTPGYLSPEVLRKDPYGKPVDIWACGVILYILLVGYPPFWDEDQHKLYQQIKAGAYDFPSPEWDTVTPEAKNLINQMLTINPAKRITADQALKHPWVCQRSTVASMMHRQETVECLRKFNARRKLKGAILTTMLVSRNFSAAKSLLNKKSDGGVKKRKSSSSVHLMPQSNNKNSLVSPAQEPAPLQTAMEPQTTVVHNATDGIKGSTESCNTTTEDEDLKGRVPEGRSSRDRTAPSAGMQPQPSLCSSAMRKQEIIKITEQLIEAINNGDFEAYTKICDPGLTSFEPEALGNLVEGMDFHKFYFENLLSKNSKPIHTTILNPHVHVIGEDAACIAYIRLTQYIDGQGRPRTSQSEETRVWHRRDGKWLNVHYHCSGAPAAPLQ
Sequence of Serine/threonine-protein kinase PAK 6 (Homo sapiens) (Q9NQU5 whole entry, looked up): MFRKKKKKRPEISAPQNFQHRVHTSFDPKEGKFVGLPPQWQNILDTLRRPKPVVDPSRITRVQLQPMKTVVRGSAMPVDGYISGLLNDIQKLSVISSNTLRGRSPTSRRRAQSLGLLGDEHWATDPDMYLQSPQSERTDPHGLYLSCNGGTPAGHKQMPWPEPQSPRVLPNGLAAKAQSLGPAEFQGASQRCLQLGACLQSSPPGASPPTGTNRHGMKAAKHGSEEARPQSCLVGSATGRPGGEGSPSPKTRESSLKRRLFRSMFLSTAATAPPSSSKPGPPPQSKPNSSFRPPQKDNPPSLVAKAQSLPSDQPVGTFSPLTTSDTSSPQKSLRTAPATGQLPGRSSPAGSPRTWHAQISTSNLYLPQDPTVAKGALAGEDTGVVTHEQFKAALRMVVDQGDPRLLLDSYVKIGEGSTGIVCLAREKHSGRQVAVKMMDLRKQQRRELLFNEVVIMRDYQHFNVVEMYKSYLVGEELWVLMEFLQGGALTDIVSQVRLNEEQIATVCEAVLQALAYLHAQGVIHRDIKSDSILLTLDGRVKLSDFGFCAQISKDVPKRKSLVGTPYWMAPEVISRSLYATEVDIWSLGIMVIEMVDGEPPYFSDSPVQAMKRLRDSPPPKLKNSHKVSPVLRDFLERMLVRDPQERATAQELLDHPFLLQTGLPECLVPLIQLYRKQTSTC
Sequence of Mitogen-activated protein kinase 11 (Homo sapiens) (Q15759 whole entry): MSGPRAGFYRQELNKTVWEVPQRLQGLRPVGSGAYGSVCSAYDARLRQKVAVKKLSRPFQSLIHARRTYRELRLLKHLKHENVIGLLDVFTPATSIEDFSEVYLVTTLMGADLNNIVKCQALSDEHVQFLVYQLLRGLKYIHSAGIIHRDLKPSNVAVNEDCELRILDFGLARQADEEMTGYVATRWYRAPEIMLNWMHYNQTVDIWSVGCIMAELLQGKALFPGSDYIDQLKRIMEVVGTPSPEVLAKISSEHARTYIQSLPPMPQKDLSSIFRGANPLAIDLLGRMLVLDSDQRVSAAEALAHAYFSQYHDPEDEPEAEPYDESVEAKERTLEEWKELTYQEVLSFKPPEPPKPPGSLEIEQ
Sequence of Death-associated protein kinase 1 (P53355 whole entry, looked up): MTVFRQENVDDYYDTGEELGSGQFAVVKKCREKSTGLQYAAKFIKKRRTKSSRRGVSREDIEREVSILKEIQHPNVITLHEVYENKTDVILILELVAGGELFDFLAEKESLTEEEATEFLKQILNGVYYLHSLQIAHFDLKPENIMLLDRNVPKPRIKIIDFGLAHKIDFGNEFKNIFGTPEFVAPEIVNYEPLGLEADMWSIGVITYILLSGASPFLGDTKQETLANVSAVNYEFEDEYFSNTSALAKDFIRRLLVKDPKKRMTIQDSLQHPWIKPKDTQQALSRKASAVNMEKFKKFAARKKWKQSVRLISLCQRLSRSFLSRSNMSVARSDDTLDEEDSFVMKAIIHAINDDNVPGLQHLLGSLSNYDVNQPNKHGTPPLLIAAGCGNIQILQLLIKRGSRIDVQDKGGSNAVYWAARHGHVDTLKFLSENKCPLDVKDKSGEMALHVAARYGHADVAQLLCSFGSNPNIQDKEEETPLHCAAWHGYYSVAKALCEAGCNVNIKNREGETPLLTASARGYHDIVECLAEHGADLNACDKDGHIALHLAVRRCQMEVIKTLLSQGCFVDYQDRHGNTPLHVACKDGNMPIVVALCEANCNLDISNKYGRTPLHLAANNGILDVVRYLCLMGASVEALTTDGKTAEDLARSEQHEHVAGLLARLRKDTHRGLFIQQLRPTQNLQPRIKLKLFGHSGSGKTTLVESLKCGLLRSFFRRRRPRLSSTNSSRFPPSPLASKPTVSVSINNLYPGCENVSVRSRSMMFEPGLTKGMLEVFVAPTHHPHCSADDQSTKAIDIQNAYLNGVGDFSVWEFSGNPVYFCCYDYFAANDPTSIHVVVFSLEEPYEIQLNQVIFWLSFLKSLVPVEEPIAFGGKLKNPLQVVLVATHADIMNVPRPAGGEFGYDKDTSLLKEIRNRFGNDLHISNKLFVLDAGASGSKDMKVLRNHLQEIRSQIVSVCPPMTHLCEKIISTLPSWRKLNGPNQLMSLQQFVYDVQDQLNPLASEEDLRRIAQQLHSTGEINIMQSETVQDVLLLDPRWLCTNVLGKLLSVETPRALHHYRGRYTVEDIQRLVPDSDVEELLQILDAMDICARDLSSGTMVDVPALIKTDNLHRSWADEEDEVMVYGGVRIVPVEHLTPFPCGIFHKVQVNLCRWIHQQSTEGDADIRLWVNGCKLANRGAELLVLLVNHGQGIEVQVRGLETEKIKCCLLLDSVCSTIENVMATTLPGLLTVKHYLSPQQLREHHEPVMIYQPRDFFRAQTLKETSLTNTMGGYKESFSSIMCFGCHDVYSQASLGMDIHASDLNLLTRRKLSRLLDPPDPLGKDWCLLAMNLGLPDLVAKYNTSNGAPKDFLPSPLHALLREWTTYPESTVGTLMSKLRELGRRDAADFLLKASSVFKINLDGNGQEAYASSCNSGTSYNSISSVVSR
Sequence of Ribosomal protein S6 kinase beta-1 (P23443 whole entry, looked up): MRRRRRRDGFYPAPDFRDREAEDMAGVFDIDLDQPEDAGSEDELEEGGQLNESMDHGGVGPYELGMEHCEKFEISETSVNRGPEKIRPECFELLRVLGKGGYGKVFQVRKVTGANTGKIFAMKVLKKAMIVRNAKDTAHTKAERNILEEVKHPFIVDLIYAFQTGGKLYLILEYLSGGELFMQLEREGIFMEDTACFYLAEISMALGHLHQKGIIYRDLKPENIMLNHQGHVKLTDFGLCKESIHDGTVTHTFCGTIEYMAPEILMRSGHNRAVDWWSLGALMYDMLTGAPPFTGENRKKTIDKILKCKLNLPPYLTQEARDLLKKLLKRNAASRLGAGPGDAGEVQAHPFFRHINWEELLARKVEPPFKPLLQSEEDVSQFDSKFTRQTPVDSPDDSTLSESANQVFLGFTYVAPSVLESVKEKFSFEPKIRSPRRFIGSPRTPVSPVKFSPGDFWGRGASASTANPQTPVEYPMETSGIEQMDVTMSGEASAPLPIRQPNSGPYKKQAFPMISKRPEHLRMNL
Sequence of Mitogen-activated protein kinase 7 (Homo sapiens) (Q13164 2-816 limits assumed): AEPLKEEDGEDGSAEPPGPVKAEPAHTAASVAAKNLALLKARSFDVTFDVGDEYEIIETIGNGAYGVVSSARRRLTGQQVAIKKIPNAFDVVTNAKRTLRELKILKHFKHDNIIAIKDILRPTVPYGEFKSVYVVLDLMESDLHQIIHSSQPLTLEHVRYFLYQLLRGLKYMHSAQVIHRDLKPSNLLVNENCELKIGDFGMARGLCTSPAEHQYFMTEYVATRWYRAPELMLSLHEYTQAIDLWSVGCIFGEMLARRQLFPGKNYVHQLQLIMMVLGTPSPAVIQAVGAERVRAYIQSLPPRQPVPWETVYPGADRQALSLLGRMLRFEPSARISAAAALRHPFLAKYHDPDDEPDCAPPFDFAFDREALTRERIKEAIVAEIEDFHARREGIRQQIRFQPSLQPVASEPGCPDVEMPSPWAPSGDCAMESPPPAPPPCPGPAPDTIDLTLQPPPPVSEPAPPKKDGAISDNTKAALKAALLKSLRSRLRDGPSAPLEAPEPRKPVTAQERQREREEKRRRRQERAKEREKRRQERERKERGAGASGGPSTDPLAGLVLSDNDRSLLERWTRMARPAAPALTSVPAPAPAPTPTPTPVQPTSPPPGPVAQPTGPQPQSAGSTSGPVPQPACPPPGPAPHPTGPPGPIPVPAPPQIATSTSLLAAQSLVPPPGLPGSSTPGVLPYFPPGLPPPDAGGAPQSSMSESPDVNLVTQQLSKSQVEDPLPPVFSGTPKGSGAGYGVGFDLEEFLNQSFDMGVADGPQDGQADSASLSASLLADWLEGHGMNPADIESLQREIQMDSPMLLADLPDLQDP
Sequence of Dual specificity testis-specific protein kinase 1 (Homo sapiens) (Q15569 whole entry, looked up): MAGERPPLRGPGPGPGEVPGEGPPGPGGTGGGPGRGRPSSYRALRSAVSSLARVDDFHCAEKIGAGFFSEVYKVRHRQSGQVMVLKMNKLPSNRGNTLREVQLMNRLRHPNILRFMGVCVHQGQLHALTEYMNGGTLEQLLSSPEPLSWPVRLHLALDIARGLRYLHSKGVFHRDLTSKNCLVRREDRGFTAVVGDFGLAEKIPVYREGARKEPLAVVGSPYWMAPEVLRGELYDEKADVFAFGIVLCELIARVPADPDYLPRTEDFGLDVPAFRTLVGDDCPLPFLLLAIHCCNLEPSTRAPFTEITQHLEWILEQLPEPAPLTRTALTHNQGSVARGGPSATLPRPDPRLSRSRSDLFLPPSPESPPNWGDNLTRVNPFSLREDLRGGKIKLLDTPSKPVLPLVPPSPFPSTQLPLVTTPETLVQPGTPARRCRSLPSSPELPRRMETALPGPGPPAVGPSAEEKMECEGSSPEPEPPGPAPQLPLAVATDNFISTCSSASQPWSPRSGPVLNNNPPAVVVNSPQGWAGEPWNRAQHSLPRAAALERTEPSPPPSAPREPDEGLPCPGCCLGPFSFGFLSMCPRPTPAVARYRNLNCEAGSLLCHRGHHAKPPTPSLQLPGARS

Regarding `Cn1cc(-n2cnc3c(NCc4nc5cc(Cl)c(Cl)cc5[nH]4)nc(N4CCOCC4)nc32)cn1`, the % of inhibition in test [1] was -5.55%.
`CNC(=O)Nc1ccc(-c2nc(N3CC4CCC(C3)O4)c3cnn(C4CCC5(CC4)OCCO5)c3n2)cc1` gave a % of control in [2] of 100%.
`Cc1cc([C@@H](C)Nc2ccccc2C(=O)O)c2nc(N3CCOCC3)cc(=O)n2c1` [AZD-6482] registered a % of control in [3] of 100%.
`CC(C)(O)[C@H](F)CN1Cc2cc(NC(=O)c3cnn4cccnc34)c(N3CCOCC3)cc2C1=O` came in with a dTM in test [4] of 0.1 K.
`Nc1cnc(N2CCc3cc(S(=O)(=O)Nc4c(F)cc(Cl)cc4F)cc(N4CCCC4=O)c32)nc1` [TP-020n]: the % of control in test [5] and in [6] was 100% each time.
As to `N#Cc1cccc(-c2c[nH]c3ncnc(N4CCOCC4)c23)c1`, the results for the % of control in test [7] and in test [8] were 100% and 66%, respectively.
Take `CC[C@@H]1[C@H](F)C(=O)N[C@@H]1COc1nccc2cc(C(N)=O)c(OC)cc12` [ZIMLOVISERTIB]: the % of inhibition was -152% in test [9] and -0.4% in [10].
Consider `C=CC(=O)Nc1cccc(C(=O)Nc2ccc(Nc3cc(-c4[nH]c(SC)nc4C)ccn3)cc2)c1`, for which the results for the % of control in [11] (at 1 µM) and in test [11] (at 5 µM) were 81% and 54%, respectively.
